Measured values as given in patent publication US20210113568A1, “PREVENTIVE AND/OR THERAPEUTIC AGENT FOR AUTOIMMUNE DISEASE COMPRISING COMPOUND HAVING Btk INHIBITORY ACTIVITY AS ACTIVE INGREDIENT” (ONO PHARMACEUTICAL CO., LTD., priority 2018, published 2021).

Test system: human neutrophils
Assay: Measurement of activation of human neutrophils (NETs formation, SYTOX Green fluorescence, immune complex stimulation)
Assay type: cell-based
Conditions: Neutrophil, immobilized HSA/anti-HSA immune complex, 1 hour preincubation, 4 hours at 37° C.
Protocol: Human serum albumin (HSA) (Sigma) was immobilized on a 96-well plate and anti-HSA antibody (Sigma) was added to form an immune complex. Blocking was performed with 10% fetal bovine serum (FBS), and the plate was then used for neutrophil activation.
Various compounds having a Btk inhibitory activity were used as the test compounds. The test compound was dissolved in DMSO and dilution with RPMI 1640 culture medium (10% FBS, contained 1% penicillin/streptomycin) was then performed to prepare a test compound solution with a concentration 11-times that of the final concentration. 180 μL of a culture medium-diluted human neutrophil suspension was added to 20 μL of the 11×-concentration test compound solution, or the medium (1.1% DMSO), and incubation was performed for 1 hour at room temperature.
20 μL of a 50 μM SYTOX Green solution (Thermo Fisher Scientific Inc.) was then added to the plate bearing the immobilized immune complex; 180 μL (1×10^5 cells/well) of the test compound-treated neutrophil suspension was added; and incubation was carried out for 4 hours at 37° C. and 5% CO2. The relative fluorescence units of the SYTOX Green bound to NETs from the neutrophils were measured using a microplate reader (Molecular Devices) and conditions of an excitation wavelength of 475 nm and a fluorescence wavelength of 523 nm. The percent inhibition (%) for the test compound was calculated using the formula given below. The percent inhibition (%) was graphically plotted using Prism (ver. 5.04, GraphPad Software) and the IC50 value was determined.
A: relative fluorescence units when the test compound was added B: relative fluorescence units at the time of stimulation C: relative fluorescence units without stimulation

Structure (SMILES)	IC50
Cc1c(-c2c(F)cc(C(N)=O)c3[nH]c4c(c23)CC[C@H](C(C)(C)O)C4)cccc1-n1c(=O)c2cccc(F)c2n(C)c1=O [BMS-986142]	0.044 µM
CC#CC(=O)N1CCC[C@H]1c1nc(-c2ccc(C(=O)Nc3ccccn3)cc2)c2c(N)nccn12 [acalabrutinib]	0.084 µM
C[C@H]1CN(C2COC2)CCN1c1ccc(Nc2cc(-c3ccnc(N4CCn5c(cc6c5CC(C)(C)C6)C4=O)c3CO)cn(C)c2=O)nc1 [fenebrutinib]	0.062 µM
C=CC(=O)N1CCC[C@@H](n2nc(-c3ccc(Oc4ccccc4)cc3)c3c(N)ncnc32)C1 [ibrutinib]	0.0036 µM
CC#CC(=O)N1CC[C@@H](n2c(=O)n(-c3ccc(Oc4ccccc4)cc3)c3c(N)ncnc32)C1 [tirabrutinib, 6-amino-9-[(3R)-1-(buta-2-ynoyl)pyrrolidin-3-yl]-7-(4-phenoxyphenyl)-7,9-dihydro-8H-purin-8-one]	0.022 µM

Same assay, conditions: Neutrophil, immobilized HSA/anti-HSA immune complex, 1 hour preincubation, 4 hours at 37° C., unit given as M

Structure (SMILES)	IC50
C=CC(=O)N1CCC(CNc2ncnc(N)c2-c2ccc(Oc3ccccc3)cc2)CC1 [evobrutinib]	0.057 µM
